Source: ChEMBL document CHEMBL4387737, “Synthesis of Isosteviol analogues as potential protective agents against Doxorubicin-induced cardiomyopathy in zebrafish embryos” (Bioorg Med Chem Lett, 2019)
The source made the active and inactive calls. The calls are words filed in the database; no cut-off is given here.

Tests used:
Danio rerio [1] = test: Cytoprotection in myl7:EGFP transgenic zebra fish embryo assessed as reduction in DOX-induced lethal toxicity by measuring LC50 dosed at 24 hpf and measured 96 hpf (reference value: 51.56 uM); type: functional
[2] = Toxicity in myl7:EGFP transgenic zebra fish embryo assessed as reduction in survival rate dosed at 24 hpf and measured 96 hpf; type: organism-based, Danio rerio; conditions: zebrafish, in vivo
Danio rerio [3] = test: Cardioprotective activity in myl7:EGFP transgenic zebra fish embryo assessed as decrease in DOX-induced pericardial edema at 100 uM dosed at 24 hpf and measured 72 hpf by fluorescent microscopy; type: functional, organism-based
Danio rerio [4] = test: Cardioprotective activity in myl7:EGFP transgenic zebra fish embryo assessed as decrease in DOX-induced morphological changes at 100 uM dosed at 24 hpf and measured 72 hpf by fluorescent microscopy; type: functional, organism-based
Danio rerio [5] = test: Cardioprotective activity in myl7:EGFP transgenic zebra fish embryo assessed as decrease in DOX-induced cardiac dysfunction at 100 uM dosed at 24 hpf and measured 72 hpf by fluorescent microscopy; type: functional, organism-based
Danio rerio [6] = test: Cardioprotective activity in myl7:EGFP transgenic zebra fish embryo assessed as recovery of in DOX-induced shortening fraction at 100 uM dosed at 24 hpf and measured 72 hpf by fluorescent microscopy; type: functional, organism-based
Danio rerio [7] = test: Cardioprotective activity in myl7:EGFP transgenic zebra fish embryo assessed as recovery of in DOX-induced heart rate impairment at 100 uM dosed at 24 hpf and measured 72 hpf by fluorescent microscopy; type: functional, organism-based
[8] = Toxicity in myl7:EGFP transgenic zebra fish embryo assessed as reduction in survival rate at 25 to 100 uM dosed at 24 hpf and measured 96 hpf; type: organism-based, Danio rerio; conditions: zebrafish, in vivo

SMILES | Activity (Danio rerio [1]) | LD [2] [µM] | LC50 (Danio rerio [1]) [µM] | Activity (Danio rerio [3]) | Activity (Danio rerio [4]) | Activity (Danio rerio [5]) | Activity (Danio rerio [6]) | Activity (Danio rerio [7]) | Activity [8]
C[C@@]12CC[C@@H]3[C@@](CC[C@H]4[C@@]3(C)CCC[C@@]4(C)C(=O)OCCCCCC(=O)O)(C[C@H]1O)C2 | inactive | 50 to 100 |  |  |  |  |  |  | 
C[C@]12CC[C@H]3[C@]4(C)CCC[C@@](C)(C(=O)O)[C@H]4CC[C@@]3(C1)[C@H](C(=O)O)[C@H]2O |  |  | 66.62 | Active | Active | Active | Active | Active | Non-Toxic
C[C@]12CC[C@H]3[C@]4(C)CCC[C@@](C)(C(=O)O)[C@H]4CC[C@@]3(C1)[C@H](CO)C2=O |  |  | 74.83 | inactive | inactive | inactive | inactive | inactive | Non-Toxic
C[C@]12CC[C@H]3[C@]4(C)CCC[C@@](C)(C(=O)O)[C@H]4CC[C@@]3(C1)[C@H](CO)[C@H]2O |  |  | 68.5 | Active | Active | Active | Active | Active | Non-Toxic
C[C@@]12CC[C@@H]3[C@@](CC[C@H]4[C@@]3(C)CCC[C@@]4(C)C(=O)OCCCCCCCCO)(C[C@H]1O)C2 | inactive | 50 to 100 |  |  |  |  |  |  | 
C[C@@]12CC[C@@H]3[C@@](CC[C@H]4[C@@]3(C)CCC[C@@]4(C)C(=O)OCCCCCCCC(=O)O)(C[C@H]1O)C2 | inactive | 50 to 100 |  |  |  |  |  |  | 
C[C@@]12CC[C@@H]3[C@@](CC[C@H]4[C@@]3(C)CCC[C@@]4(C)C(=O)OCCO)(C[C@H]1O)C2 | inactive |  |  |  |  |  |  |  | 
C[C@]12CC[C@H]3[C@]4(C)CCC[C@@](C)(C(=O)O)[C@H]4CC[C@@]3(C1)[C@H](C=O)C2=O |  |  |  | inactive | inactive | inactive | inactive | inactive | Non-Toxic
C[C@@]12CC[C@@H]3[C@@](CC[C@H]4[C@@]3(C)CCC[C@@]4(C)C(=O)OCCCCCCO)(C[C@H]1O)C2 | inactive | 50 to 100 |  |  |  |  |  |  | 
C[C@]12CC[C@H]3[C@]4(C)CCC[C@@](C)(C(=O)O)[C@H]4CC[C@@]3(C1)[C@H](C=O)[C@H]2O |  |  | 92.61 | Active | Active | Active | Active | Active | Non-Toxic
